Test results reported in US20240376092A1 (priority 2021, published 2024).

The compounds below were run on HEK293 cells expressing ΔCR PrP (assay: cells). Conditions: HEK293, 48 h, read-out: % RMAX: maximum rescuing effect, expressed as percentage of the effect of SM3(LD24) at the same concentration.
Format: cell-based
Design: Emax: dose or concentration left out as unconfirmed

Compound	Emax [%]
C=CCNC(=O)CN1c2ccc(Br)cc2-c2ccccc2S1(=O)=O [SM164]	53.7

Same assay, conditions: HEK293, 48 h; 1 μM; read-out: % RMAX: maximum rescuing effect, expressed as percentage of the effect of SM3(LD24) at the same concentration

Compound	Emax at 1 µM [%]
O=C(CN1c2ccc(Br)cc2-c2ccccc2S1(=O)=O)NC1CCCCCC1 [SM5, 2-(9-Bromo-5,5-dioxido-6H-dibenzo[c,e][1,2]thiazin-6-yl)-N-cycloheptylacetamide]	52.8
CN(C(=O)CN1c2ccc(Br)cc2-c2ccccc2S1(=O)=O)C1CCCCC1 [SM8, 2-(9-Bromo-5,5-dioxido-6H-dibenzo[c,e][1,2]thiazin-6-yl)-N-cyclohexyl-N-methylacetamide]	46.2
O=C(CN1c2ccc(Br)cc2-c2ccccc2S1(=O)=O)NCc1ccco1 [SM167]	56.6
O=S1(=O)c2ccccc2-c2cc(Br)ccc2N1CCNC1CCCCC1 [SM9, N-[2-(9-bromo-5,5-dioxido-6H-dibenzo[c,e][1,2]thiazin-6-yl)ethyl]cyclohexanamine]	45.2
O=C1C(N2c3ccc(Br)cc3-c3ccccc3S2(=O)=O)CCN1C1CCCCC1 (racemic) [SM11, (R,S)-3-(9-Bromo-5,5-dioxido-6H-dibenzo[c,e][1,2]thiazin-6-yl)-1-cyclohexylpyrrolidin-2-one]	43.9
CC(C)CNC(=O)CN1c2ccc(Br)cc2-c2ccccc2S1(=O)=O [SM174]	56.3
O=C(CN1c2ccc(F)c(Cl)c2-c2ccccc2S1(=O)=O)NC1CCCCC1 [SM337, 2-(10-chloro-9-fluoro-5,5-dioxido-6H-dibenzo[c,e][1,2]thiazin-6-yl)-N-cyclohexylacetamide]	109
Cc1cccc(NC(=O)CN2c3ccc(Br)cc3-c3ccccc3S2(=O)=O)c1 [SM171]	102
O=C(CN1c2ccc(Br)cc2-c2ccccc2S1(=O)=O)Nc1ccc(F)cc1 [SM222]	85.1
O=C(CN1c2ccc(C(F)(F)F)cc2-c2ccccc2S1(=O)=O)N[C@H]1CC[C@H](OS(=O)(=O)c2ccc([N+](=O)[O-])cc2)CC1 [SM589, trans-4-({2-[5,5-dioxido-9-(trifluoromethyl)-6H-dibenzo[c,e][1,2]thiazin-6-yl]acetyl}amino)cyclohexyl 4-nitrobenzenesulfonate]	116
O=C(CN1c2ccc(Br)cc2-c2ccccc2S1(=O)=O)NC1CCCCCCC1 [SM162]	71.8
O=C(CN1c2c(Br)cccc2-c2ccccc2S1(=O)=O)NC1CCCCC1 [SM227, 2-(7-Bromo-5,5-dioxido-6H-dibenzo[c,e][1,2]thiazin-6-yl)-N-cyclohexylacetamide]	41.1
O=C(CN1c2ccc(Br)cc2-c2ccccc2S1(=O)=O)NCc1ccccc1 [SM166]	48.6
Cc1n[nH]c2c1N(CC(=O)NC1CCCCC1)S(=O)(=O)c1ccccc1-2 [SM879, N-cyclohexyl-2-(3-methyl-5,5-dioxidopyrazolo[4,3-c][1,2]benzothiazin-4 (1H)-yl)acetamide]	22.5
O=C(CN1c2ccc(Br)cc2-c2ccccc2S1(=O)=O)Nc1ccccc1 [SM6, 2-(9-bromo-5,5-dioxo-6H-dibenzo[c,e][1,2]thiazin-6 (5H)-yl)-N-phenylacetamide]	48.1
COc1ccc2c(c1)-c1ccccc1S(=O)(=O)N2CC(=O)NC1CCCCC1 [SM225, N-Cyclohexyl-2-(9-methoxy-5,5-dioxido-6H-dibenzo[c,e][1,2]thiazin-6-yl)acetamide]	61.5
O=C(CN1c2ccc(Br)cc2-c2ccccc2S1(=O)=O)Nc1cccnc1 [SM221]	44.9
O=C(CN1c2ccccc2-c2ccccc2S1(=O)=O)NC1CCCCC1 [SM7, 2-(5,5-dioxido-6H-dibenzo[c,e][1,2]thiazin-6-yl)-N-cyclohexylacetamide]	55.9
O=C(CN1c2ccc(Br)cc2-c2ccccc2S1(=O)=O)NC1CC1 [SM165]	65.6
O=C(CN1c2ccc(F)cc2-c2ccccc2S1(=O)=O)NC1CCCC1 [SM219]	54

Compound	Emax at 1 µM [%]
O=C(CN1c2cc(Cl)cc(Cl)c2-c2ccccc2S1(=O)=O)NC1CCCCC1 [SM587, N-cyclohexyl-2-(8,10-dichloro-5,5-dioxido-6H-dibenzo[c,e][1,2]thiazin-6-yl)acetamide]	168
O=C(CN1c2ccc(Br)cc2-c2ccccc2S1(=O)=O)NCc1ccccn1 [SM176]	37.9
O=C(CN1c2ccc(F)cc2-c2ccccc2S1(=O)=O)NC12CC3CC(CC(C3)C1)C2 [SM224]	71.5
O=C(CN1c2ccc(Cl)cc2-c2ccccc2S1(=O)=O)NC1CCCCC1 [SM254, 2-(9-chloro-5,5-dioxido-6H-dibenzo[c,e][1,2]thiazin-6-yl)-N-cyclohexylacetamide]	127
CC(C)c1ccc2c(c1)-c1ccccc1S(=O)(=O)N2CC(=O)NC1CCCCC1 [SM180]	44
O=C(CN1c2cccc(Cl)c2-c2ccccc2S1(=O)=O)NC1CCCCC1 [SM585, 2-(10-chloro-5,5-dioxido-6H-dibenzo[c,e][1,2]thiazin-6-yl)-N-cyclohexylacetamide]	71.7
CC(C)NC(=O)CN1c2ccc(Br)cc2-c2ccccc2S1(=O)=O [SM169]	59.1
O=C(CN1c2cccc(C(F)(F)F)c2-c2ccccc2S1(=O)=O)NC1CCCCC1 [SM339, N-cyclohexyl-2-[5,5-dioxido-10-(trifluoromethyl)-6H-dibenzo[c,e][1,2]thiazin-6-yl]acetamide]	112
O=C(CN1c2ccc(Br)cc2-c2ccccc2S1(=O)=O)NCCC1=CCCCC1 [SM173]	66
O=C(CCN1c2ccc(Br)cc2-c2ccccc2S1(=O)=O)NC1CCCCC1 [SM10, 3-(9-Bromo-5,5-dioxido-6H-dibenzo[c,e][1,2]thiazin-6-yl)-N-cyclohexylpropanamide]	45.1
O=C(CN1c2ccc(Br)cc2-c2ccccc2S1(=O)=O)NCCCn1ccnc1 [SM220]	51.7
O=C(CN1c2ccc(Br)cc2-c2ccccc2S1(=O)=O)NCCN1CCOCC1 [SM178]	44
O=C(CN1c2cc(Cl)ccc2-c2ccccc2S1(=O)=O)NC1CCCCC1 [SM586, 2-(8-chloro-5,5-dioxido-6H-dibenzo[c,e][1,2]thiazin-6-yl)-N-cyclohexylacetamide]	181
O=C(CN1c2ccc(Br)cc2-c2ccccc2S1(=O)=O)NCC1CCCO1 (stereo not drawn) [SM172]	40.6
COCCNC(=O)CN1c2ccc(Br)cc2-c2ccccc2S1(=O)=O [SM170]	36.9
O=C(CN1c2cc(Cl)c(F)cc2-c2ccccc2S1(=O)=O)NC1CCCCC1 [SM336, 2-(8-chloro-9-fluoro-5,5-dioxido-6H-dibenzo[c,e][1,2]thiazin-6-yl)-N-cyclohexylacetamide]	119
O=C(CN1c2ccc(C(F)(F)F)cc2-c2ccccc2S1(=O)=O)Nc1ccnc(Cl)c1 [SM880, N-(2-chloropyridin-4-yl)-2-[5,5-dioxido-9-(trifluoromethyl)-6H-dibenzo[c,e][1,2]thiazin-6-yl]acetamide]	78.3
O=C(CN1c2ccc(O)cc2-c2ccccc2S1(=O)=O)NC1CCCCC1 [SM226, N-Cyclohexyl-2-(9-hydroxy-5,5-dioxido-6H-dibenzo[c,e][1,2]thiazin-6yl)acetamide]	37.9
CCC(C)NC(=O)CN1c2ccc(Br)cc2-c2ccccc2S1(=O)=O (stereo not drawn) [SM175]	66.2
CC(C)(C)NC(=O)CN1c2ccc(Cl)cc2-c2ccccc2S1(=O)=O [SM179]	59.8

Same assay, conditions: HEK293, read-out: IC50 (rescuing dose at 50%)

Compound	IC50 [nM]
O=C(CN1c2ccc(F)c(Cl)c2-c2ccccc2S1(=O)=O)NC1CCCCC1 [SM337, 2-(10-chloro-9-fluoro-5,5-dioxido-6H-dibenzo[c,e][1,2]thiazin-6-yl)-N-cyclohexylacetamide]	970
O=C(CN1c2ccc(C(F)(F)F)cc2-c2ccccc2S1(=O)=O)N[C@H]1CC[C@H](OS(=O)(=O)c2ccc([N+](=O)[O-])cc2)CC1 [SM589, trans-4-({2-[5,5-dioxido-9-(trifluoromethyl)-6H-dibenzo[c,e][1,2]thiazin-6-yl]acetyl}amino)cyclohexyl 4-nitrobenzenesulfonate]	1050
O=C(CN1c2cc(Cl)cc(Cl)c2-c2ccccc2S1(=O)=O)NC1CCCCC1 [SM587, N-cyclohexyl-2-(8,10-dichloro-5,5-dioxido-6H-dibenzo[c,e][1,2]thiazin-6-yl)acetamide]	600
O=C(CN1c2ccc(Cl)cc2-c2ccccc2S1(=O)=O)NC1CCCCC1 [SM254, 2-(9-chloro-5,5-dioxido-6H-dibenzo[c,e][1,2]thiazin-6-yl)-N-cyclohexylacetamide]	300
O=C(CN1c2cccc(C(F)(F)F)c2-c2ccccc2S1(=O)=O)NC1CCCCC1 [SM339, N-cyclohexyl-2-[5,5-dioxido-10-(trifluoromethyl)-6H-dibenzo[c,e][1,2]thiazin-6-yl]acetamide]	340
O=C(CN1c2cc(Cl)ccc2-c2ccccc2S1(=O)=O)NC1CCCCC1 [SM586, 2-(8-chloro-5,5-dioxido-6H-dibenzo[c,e][1,2]thiazin-6-yl)-N-cyclohexylacetamide]	350
O=C(CN1c2cc(Cl)c(F)cc2-c2ccccc2S1(=O)=O)NC1CCCCC1 [SM336, 2-(8-chloro-9-fluoro-5,5-dioxido-6H-dibenzo[c,e][1,2]thiazin-6-yl)-N-cyclohexylacetamide]	100
